Reference: US12138256B2, “Treatment of cardiopulmonary disorders” (Bayer Aktiengesellschaft, priority 2021, dated 2024)
Several values for one entry are separate records, joined by “and”; a condition that tells them apart may be missing. Identical values can stand only once. Like-named read-outs stand apart in the source and are kept apart here.

Assays:
rabbit saphenous artery = test: Vasorelaxant effect in vitro: phenylephrine-induced contraction of rabbit saphenous artery rings (C-1.1); settings: for % contraction (PE-induced contraction of rabbit saphenous artery): mean +/− SEM; for IC50: Oryctolagus cuniculus, read-out: IC50, inhibition of phenylephrine induced contractions of rabbit saphenous artery rings
Method: Rabbits were anaesthetized and sacrificed by intravenous injection of thiopental sodium (about 50 mg/kg) and exsanguinated. The saphenous artery was removed and divided into rings 3 mm wide. The rings were mounted singly on in each case a pair of triangular hooks open at the end and made of 0.3 mm-thick special wire (Remanium®). Each ring was placed under an initial tension in 5 ml organ baths with Krebs-Henseleit solution which was at 37° C., was gassed with carbogen and had the following composition: NaCl 119 mM; KCl 4.8 mM; CaCl2)×2 H2O 1 mM; MgSO4×7 H2O 1.4 mM; KH2PO41.2 mM; NaHCO325 mM; glucose 10 mM; bovine serum albumin 0.001%. The force of contraction was detected with Statham UC2 cells, amplified and digitized via A/D converters (DAS-1802 HC, Keithley Instruments, Munich) and recorded in parallel on chart recorders. Contractions were induced by addition of phenylephrine.
The concentration necessary to reduce the contraction reached in the preceding control by 50% was calculated from this (IC50). The standard application volume was 5 μl. The proportion of DMSO in the bath solution corresponded to 0.1%.

[1] = test system: hypoxia induced PAP increase in conscious dogs; test: Haemodynamics in conscious hypoxia challenged dogs (C-2.2); format: in vivo, dog; set-up: PAP, absolute values for each animal: unit: mmHg; settings: for mPAP decrease during Hypoxia, each animal / mPAP decrease during Hypoxia, mean +/− SEM: n = 3
Method: Experiments were carried out in anesthetized Göttingen minipigs, anesthetized rats and conscious, telemetrically instrumented dogs. Acute pulmonary hypertension was induced for example by infusion of a thromboxane A2 analogon, by acute hypoxia treatment or hypoxia treatment over a number of weeks and/or by administration of monocrotaline. Test substances were applied via nebulization using the Nebutec® or Aeroneb® Pro nebulizer system, and/or by means of powder and/or solution applicators for experimental intratracheal administration (Liquid MicroSprayer®, Dry Powder Insufflator™, MicroSprayer®, Penn-Century Inc., Wyndmoor, PA, USA) or after solid nebulization inserted into the inspiration arm of the ventilation. Compounds were employed as solids or solutions depending on the molecular structure and the technical possibility depending on the experiment. The haemodynamic signals were recorded and evaluated by means of pressure transducers/amplifiers (Combitransducer B. Braun, Melsungen, Germany or CardioMEMS Inc., Atlanta, GA, USA) and Ponemah® or CardioMems® as data aquisition software. After long-term experiments (for example monocrotaline rat), it is also possible to carry out a histological evaluation.
We evaluated the lung-selectivity and duration of effects of comparative example 11 under conscious conditions, in another species, and under a more physiological stimulus for PAP increase. Dogs were exposed to hypoxia for 30 minutes to induce a hypoxia-mediated PAP increase and comparative example 11 (100 μg/kg nominal dose) was applied by inhalation 1, 5, 12, 16 and 24 hours before hypoxia.
The hypoxic dog model was also used to compare different drug candidates wrt duration of action under conscious conditions.

[2] = Protein binding via Transil assay, dog plasma; format: in vitro ADME; settings: Dog Beagle plasma, Transil assay
Text: The distribution of a test substance between Transil® (phosphatidylcholine lipid bilayers immobilized on silica beads) and plasma is a characteristic feature of any pharmaceutical compound and is dependent on its extent of binding to plasma proteins. By comparing the distribution between Transil® and buffer with the distribution between Transil® and plasma of any species of interest, the unbound fraction in the plasma of the respective animal species can be calculated in vitro. The respective plasma and buffer concentrations were determined via a radioactivity analysis. A detailed description of the method and its validation was published by Schuhmacher et al. (2).

[3] = 100 μg/kg nominal dose inhaled, 1-2 h post inhalation
[4] = 100 μg/kg nominal dose inhaled, 5-6 h post inhalation
[5] = 100 μg/kg nominal dose inhaled, 12-13 h post inhalation
[6] = 100 μg/kg nominal dose inhaled, 16-17 h post inhalation
[7] = 100 μg/kg nominal dose inhaled, 24-25 h post inhalation

O=C(O)c1ccc(CCN(CCc2ccccc2OCc2ccc(-c3ccc(C(F)(F)F)cc3)cc2Cl)[C@H]2CCCc3nc(C(=O)O)ccc32)cc1 [comparative example 11, (5S)-5-{[2-(4-carboxyphenyl)ethyl][2-(2-{[3-chloro-4′-(trifluoromethyl)[biphenyl]-4-yl]methoxy}phenyl)ethyl]amino}-5,6,7,8-tetrahydroquinoline-2-carboxylic acid]
% contraction (PE-induced contraction of rabbit saphenous artery) (rabbit saphenous artery; 10^−5 M/L, incubation time 0.5 h): 19 ± 3.0% | % contraction (PE-induced contraction of rabbit saphenous artery) (rabbit saphenous artery; 10^−6 M/L, incubation time 0.5 h): 59 ± 4.9% | % contraction (PE-induced contraction of rabbit saphenous artery) (rabbit saphenous artery; 10^−7 M/L, incubation time 0.5 h): 80 ± 4.6% | % contraction (PE-induced contraction of rabbit saphenous artery) (rabbit saphenous artery; 10^−8 M/L, incubation time 0.5 h): 92 ± 3.0% | % contraction (PE-induced contraction of rabbit saphenous artery) (rabbit saphenous artery; 10^−8 M/L, incubation time 2.5 h): 29 ± 9.3% | % contraction (PE-induced contraction of rabbit saphenous artery) (rabbit saphenous artery; 10^−9 M/L, incubation time 0.5 h): 103 ± 3.5% | % contraction (PE-induced contraction of rabbit saphenous artery) (rabbit saphenous artery; 10^−9 M/L, incubation time 2.5 h): 47 ± 6.2% | % contraction (PE-induced contraction of rabbit saphenous artery) (rabbit saphenous artery; 10^−10 M/L, incubation time 0.5 h): 99 ± 3.4% | % contraction (PE-induced contraction of rabbit saphenous artery) (rabbit saphenous artery; 10^−10 M/L, incubation time 2.5 h): 67 ± 5.7% | % contraction (PE-induced contraction of rabbit saphenous artery) (rabbit saphenous artery; 10^−11 M/L, incubation time 0.5 h): 100 ± 1.5% | % contraction (PE-induced contraction of rabbit saphenous artery) (rabbit saphenous artery; 10^−11 M/L, incubation time 2.5 h): 91 ± 2.0% | % contraction (PE-induced contraction of rabbit saphenous artery) (rabbit saphenous artery; 10^−12 M/L, incubation time 2.5 h): 98 ± 0% | IC50 (rabbit saphenous artery; 0.5 h, 30 min after incubation): 911 nM | IC50 (rabbit saphenous artery; preincubation period of 2.5 h): 0.8 nM | effects on HR ([1]; 100 μg/kg nominal dose inhaled): No effects on HR | PAP, absolute values for each animal ([1]; 100 μg/kg nominal dose inhaled 1 h before hypoxia, time 4 min): 10 and 13 and 8 | PAP, absolute values for each animal ([1]; 100 μg/kg nominal dose inhaled 1 h before hypoxia, time 6 min): 12 and 13 and 8 | PAP, absolute values for each animal ([1]; 100 μg/kg nominal dose inhaled 1 h before hypoxia, time 8 min): 10 and 12 and 9 | PAP, absolute values for each animal ([1]; 100 μg/kg nominal dose inhaled 16 h before hypoxia, time 22 min): 23 (2×) and 12 | PAP, absolute values for each animal ([1]; 100 μg/kg nominal dose inhaled 16 h before hypoxia, time 24 min): 21 and 27 and 14 | PAP, absolute values for each animal ([1]; 100 μg/kg nominal dose inhaled 16 h before hypoxia, time 26 min): 23 and 24 and 12 | PAP, absolute values for each animal ([1]; 100 μg/kg nominal dose inhaled 16 h before hypoxia, time 28 min): 21 and 25 and 15 | PAP, absolute values for each animal ([1]; 100 μg/kg nominal dose inhaled 16 h before hypoxia, time 30 min): 21 and 23 and 14 | PAP, absolute values for each animal ([1]; 100 μg/kg nominal dose inhaled 16 h before hypoxia, time 32 min): 18 and 26 and 16 | PAP, absolute values for each animal ([1]; 100 μg/kg nominal dose inhaled 16 h before hypoxia, time 34 min): 18 and 28 and 15 | PAP, absolute values for each animal ([1]; 100 μg/kg nominal dose inhaled 16 h before hypoxia, time 36 min): 17 and 25 and 18 | PAP, absolute values for each animal ([1]; 100 μg/kg nominal dose inhaled 16 h before hypoxia, time 38 min): 18 and 27 and 17 | PAP, absolute values for each animal ([1]; 100 μg/kg nominal dose inhaled 16 h before hypoxia, time 40 min): 17 (2×) and 28 | PAP, absolute values for each animal ([1]; 100 μg/kg nominal dose inhaled 16 h before hypoxia, time 42 min): 9 and 19 and 13 | PAP, absolute values for each animal ([1]; 100 μg/kg nominal dose inhaled 16 h before hypoxia, time 44 min): 7 and 18 and 9 | PAP, absolute values for each animal ([1]; 100 μg/kg nominal dose inhaled 16 h before hypoxia, time 46 min): 7 and 18 and 6 | PAP, absolute values for each animal ([1]; 100 μg/kg nominal dose inhaled 16 h before hypoxia, time 48 min): 6 and 16 and 9 | PAP, absolute values for each animal ([1]; 100 μg/kg nominal dose inhaled 16 h before hypoxia, time 50 min): 7 and 15 and 8 | PAP, absolute values for each animal ([1]; 100 μg/kg nominal dose inhaled 24 h before hypoxia, time 0 min): 10 and 15 (2×) | PAP, absolute values for each animal ([1]; 100 μg/kg nominal dose inhaled 24 h before hypoxia, time 2 min): 9 and 14 and 12 | PAP, absolute values for each animal ([1]; 100 μg/kg nominal dose inhaled 24 h before hypoxia, time 4 min): 8 and 14 and 10 | PAP, absolute values for each animal ([1]; 100 μg/kg nominal dose inhaled 24 h before hypoxia, time 6 min): 8 and 16 and 11 | PAP, absolute values for each animal ([1]; 100 μg/kg nominal dose inhaled 24 h before hypoxia, time 8 min): 8 and 14 and 9 | PAP, absolute values for each animal ([1]; 100 μg/kg nominal dose inhaled 24 h before hypoxia, time 10 min): 9 and 11 and 10 | PAP, absolute values for each animal ([1]; 100 μg/kg nominal dose inhaled 24 h before hypoxia, time 12 min): 20 (2×) and 15 | PAP, absolute values for each animal ([1]; 100 μg/kg nominal dose inhaled 24 h before hypoxia, time 14 min): 23 and 22 and 19 | PAP, absolute values for each animal ([1]; 100 μg/kg nominal dose inhaled 24 h before hypoxia, time 16 min): 27 and 24 and 22 | PAP, absolute values for each animal ([1]; 100 μg/kg nominal dose inhaled 24 h before hypoxia, time 18 min): 27 and 26 and 20 | PAP, absolute values for each animal ([1]; 100 μg/kg nominal dose inhaled 24 h before hypoxia, time 20 min): 29 (2×) and 23 | PAP, absolute values for each animal ([1]; 100 μg/kg nominal dose inhaled 24 h before hypoxia, time 22 min): 27 and 30 and 22 | PAP, absolute values for each animal ([1]; 100 μg/kg nominal dose inhaled 24 h before hypoxia, time 24 min): 26 and 28 and 22 | PAP, absolute values for each animal ([1]; 100 μg/kg nominal dose inhaled 24 h before hypoxia, time 26 min): 24 and 29 and 17 | PAP, absolute values for each animal ([1]; 100 μg/kg nominal dose inhaled 24 h before hypoxia, time 28 min): 26 and 29 and 20 | PAP, absolute values for each animal ([1]; 100 μg/kg nominal dose inhaled 24 h before hypoxia, time 30 min): 24 | efficacy (PAP decrease), head to head ([1]; 100 μg/kg nominal dose inhaled, up to 6 hrs after inhalation): comparable efficacy | mPAP decrease during Hypoxia, each animal [1, 3]: −12.44 mmHg and −11.44 mmHg and −10.13 mmHg | mPAP decrease during Hypoxia, mean +/− SEM [1, 3]: −11.33 ± 0.67 mmHg | mPAP decrease during Hypoxia, each animal [1, 4]: −16.13 mmHg and −5.44 mmHg and −8.75 mmHg | mPAP decrease during Hypoxia, mean +/− SEM [1, 4]: −10.10 ± 3.16 mmHg | mPAP decrease during Hypoxia, each animal [1, 5]: −3.44 mmHg and −4.81 mmHg and −1.69 mmHg | mPAP decrease during Hypoxia, mean +/− SEM [1, 5]: −3.31 ± 0.90 mmHg | mPAP decrease during Hypoxia, each animal [1, 6]: −2.25 mmHg and −4.25 mmHg and −3.00 mmHg | mPAP decrease during Hypoxia, mean +/− SEM [1, 6]: −3.17 ± 0.58 mmHg | mPAP decrease during Hypoxia, each animal [1, 7]: −0.13 mmHg and −1.94 mmHg and −0.50 mmHg | mPAP decrease during Hypoxia, mean +/− SEM [1, 7]: −0.85 ± 0.55 mmHg | PAP decrease, head to head ([1]; 100 μg/kg nominal dose, 12 and 16 hrs after inhalation): more effective PAP decrease for comparative example 11 compared to comparative example 4 | fraction unbound [2]: 0.00108
